Experimental data reported in patent US7741355B2, “Small-molecule modulators of TRP-p8 activity” (Dendreon Corporation, priority 2006, dated 2010).

Tests used:
Trp-p8 = biological target: T1, Trp-p8 (Homo sapiens, UniProt Q7Z2W7, T58I); experiment: ATP viability assay with CHO/Trp-p8 cells at 37° C.; format: cell-based; details: ATP viability assay
T1 construct: expressed in transfected cells; host or cells: CHO (Chinese Hamster Ovary) cells
Description: (§1) Human Trp-p8 transfected CHO cells (referred to herein as CHO/Trp-p8) were generated for use in experiments of the present invention. Expression of Trp-p8 polypeptide in this transfectant and the absence of any endogenous expression in the non-transfected CHO was confirmed by western blot and immunofluorescence using a Trp-p8 specific antibody (GS2.20) as well as the calcium flux assay with Icilin (1-[2-hydroxyphenyl]-4-[3-nitrophenyl]-1,2,3,6-tetrahydropyrimidine-2-one) and menthol (2-isopropyl-5-methyl-cyclohexanol). Non-transfected CHO cells were used to establish the specificity of the effects of the compounds observed with CHO/Trp-p8.
This Example discloses an ATP viability assay suitable for screening for effective Trp-p8 agonists. The ATP viability assay described herein employs CHO cells expressing an exogenous Trp-p8 cDNA. This example further establishes that Trp-p8 agonists of the present invention are effective in decreasing the viability of Trp-p8 expressing cells.
The concentration of intracellular ATP declines very rapidly when metabolically active cells undergo necrosis and/or apoptosis. The ATP concentration and consequently the relative cell viability can be measured by established methods using commercially available reagents. In the agonist screening methodology disclosed herein, a compound that specifically decreases the viability of CHO/Trp-p8 cells is referred to as an agonist.
(§2) As a primary screen for efficacy and specificity for agonists, both the non-transfected CHO and CHO/Trp-p8 cells were exposed to 1 or 10 μM of test compounds in 1% dimethylsulfoxide (DMSO) or 1% DMSO (control) in a 96-well black walled, black-bottomed, cell-culture treated plate. DMSO was the solvent for all of the compounds tested. After 24-26 hours at 37° C., the cells were lysed and ATP concentration determined via a chemiluminescence assay using a commercially available reagent kit—Cell Titer-Glo (Promega; Madison, Wis.). […] (EC50 is defined herein as the agonist concentration at which there is a 50% reduction in relative cell viability).

Parent CHO = experiment: ATP viability assay with non-transfected (parent) CHO cells; format: cell-based, Chinese Hamster; details: Cricetulus griseus
Description: as §1, §2

CHO/Trp-p8 xenograft = experiment: CHO/Trp-p8 murine tumor xenograft model; format: in vivo, mice
Method: FIGS. 6A-6B are graphs depicting results from an exemplary animal model suitable for testing and characterizing small-molecule Trp-p8 modulators of the present invention. Mice were injected subcutaneously with CHO/Trp-p8 cells, resulting in the formation of solid tumors. The length (longest dimension) and width (dimension perpendicular to and in the same plane as length) of each tumor was measured with Vernier calipers, and the tumor volume was approximated by a formula for the volume of an ellipsoid: 0.52*L*W^2. When the average tumor volume reached approximately 100 mm^3, the mice were randomized into groups. In FIG. 6A, the mice were administered a single dose of either a study compound as an aqueous formulation, or vehicle alone, by oral gavage. […] Tumors were then subsequently measured on the indicated days. […]
Mice were injected subcutaneously with CHO/Trp-p8 cells, resulting in the formation of solid tumors. The length (L; longest dimension) and width (W; dimension perpendicular to and in the same plane as length) of each tumor was measured with calipers, and the tumor volume was approximated by a formula for the volume of an ellipsoid: 0.52*L*W^2. […] Tumors were subsequently measured on the indicated days. […]
Mice were injected subcutaneously with CHO/Trp-p8 cells, resulting in the formation of solid tumors. […] Tumors were then subsequently measured on the indicated days. […]

LuCaP = LuCaP murine tumor xenograft model expressing Trp-p8; format: in vivo, mice; details: intraperitoneal injection, once a day for 5 days; slower-growing tumor
Method: The LuCaP tumor model was obtained from Robert L. Vassella, Ph.D., Professor of Urology in the University of Washington's School of Medicine. The length (L; longest dimension) and width (W; dimension perpendicular to and in the same plane as length) of each tumor was measured with Vernier calipers, and the tumor volume was approximated by a formula for the volume of an ellipsoid: 0.52*L*W^2. When the average tumor volume reached approximately 150 mm^3, the mice were administered the compound, as an aqueous formulation, by intraperitoneal injection, once a day for 5 days. Tumors were then subsequently measured on the indicated days. The data is presented as mean tumor volumes±standard error of the mean.
Human prostate cancer xenografts expressing Trp-p8 (LuCaP, from Dr. Robert Vessella's lab in University of Washington—as assessed by in situ hybridization, quantitative polymerase chain reaction, and immunohistochemistry using a protein specific rabbit polyclonal antibody, T-904), as well as cell lines engineered to express Trp-p8, including CHO (Chinese Hamster Ovary) and EL-4 (Mouse Thymoma) cell lines, were used to establish tumor models in mice. Trp-p8 expression in the transfectants was confirmed by western blots and immunofluorescence using a Trp-p8 specific antibody (GS 2.20) as well as by response to known agonists in a calcium influx functional assay. […]

[1] = Sustained plasma levels after oral dosing (half-life, species not stated); format: in vivo; details: oral administration, read-out: t½ (sustained plasma levels) (converted)
Description: (§3) FIGS. 9A and 9B are graphs depicting the plasma concentrations of several compounds, as a function of time and dose, in rats (FIG. 9A), and dogs (FIG. 9B) after a single oral dose. […] Blood was collected at the indicated time points, and analyzed for drug levels.

[2] = Plasma concentrations in rats after a single oral dose; format: in vivo; details: rodents (FIG. 9A: rats), aqueous formulation, oral gavage
Description: as §3

[3] = tested on: CHO-K1 cells lacking Trp-p8; experiment: Matched CHO (Trp-p8-) murine tumor xenograft model (CHO-K1 cells lacking Trp-p8); format: in vivo, mice; details: 100 mg/kg, single oral dose
Method: Mice were injected subcutaneously with CHO-K1 cells lacking Trp-p8, resulting in the formation of solid tumors. The length (L; longest dimension) and width (W; dimension perpendicular to and in the same plane as length) of each tumor was measured with Vernier calipers, and the tumor volume was approximated by a formula for the volume of an ellipsoid: 0.52*L*W^2. When the average tumor volume reached approximately 50 mm^3, the mice were randomized into groups, and administered either a single dose of the compound as an aqueous formulation, or vehicle, by oral gavage. Tumors were then subsequently measured on the indicated days. The data is presented as mean tumor volumes±standard error of the mean.

[4] = Plasma concentrations in dogs after a single oral dose; format: in vivo; details: Beagle dogs (FIG. 9B), aqueous formulation, oral gavage
Description: as §3

T1 sequence (Q7Z2W7 whole entry T58I): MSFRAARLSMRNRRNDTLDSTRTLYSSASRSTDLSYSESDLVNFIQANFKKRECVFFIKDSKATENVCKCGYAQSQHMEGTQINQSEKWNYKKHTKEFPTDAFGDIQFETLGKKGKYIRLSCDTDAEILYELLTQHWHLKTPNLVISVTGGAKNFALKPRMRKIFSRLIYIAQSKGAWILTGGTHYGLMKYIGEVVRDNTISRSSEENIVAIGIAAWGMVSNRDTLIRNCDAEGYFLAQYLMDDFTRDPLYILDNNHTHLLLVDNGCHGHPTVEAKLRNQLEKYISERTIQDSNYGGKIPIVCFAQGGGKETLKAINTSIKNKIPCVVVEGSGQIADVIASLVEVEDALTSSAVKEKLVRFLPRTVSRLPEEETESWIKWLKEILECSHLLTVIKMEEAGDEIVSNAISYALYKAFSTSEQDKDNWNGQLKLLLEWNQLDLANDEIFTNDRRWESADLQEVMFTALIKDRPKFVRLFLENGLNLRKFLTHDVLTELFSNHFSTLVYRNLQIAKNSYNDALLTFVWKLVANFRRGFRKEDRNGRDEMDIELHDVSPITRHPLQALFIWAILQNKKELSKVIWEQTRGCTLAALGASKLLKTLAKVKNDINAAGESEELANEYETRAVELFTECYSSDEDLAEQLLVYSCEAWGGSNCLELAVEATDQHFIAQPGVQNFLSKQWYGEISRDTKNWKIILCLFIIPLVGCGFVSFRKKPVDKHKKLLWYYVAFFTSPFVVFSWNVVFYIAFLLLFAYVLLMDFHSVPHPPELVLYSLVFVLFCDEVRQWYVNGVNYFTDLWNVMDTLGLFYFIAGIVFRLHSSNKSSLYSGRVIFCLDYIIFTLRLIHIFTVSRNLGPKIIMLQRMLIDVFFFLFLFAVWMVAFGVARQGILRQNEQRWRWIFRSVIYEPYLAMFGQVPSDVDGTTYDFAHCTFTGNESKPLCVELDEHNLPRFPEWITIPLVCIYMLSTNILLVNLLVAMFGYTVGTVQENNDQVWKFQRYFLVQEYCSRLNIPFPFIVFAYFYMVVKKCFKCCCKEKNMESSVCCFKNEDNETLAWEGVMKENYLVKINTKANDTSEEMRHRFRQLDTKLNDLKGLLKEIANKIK

- half-life [1]: ~9 h
- exposure after a single oral administration [2]: prolonged exposure
- exposure after a single oral administration [4]: prolonged exposure
SMILES: COc1ccc2c(c1)n(CCN)c(=O)n2C(=O)[C@@H]1C[C@H](C)CC[C@H]1C(C)C [Compound I]
- times more potent than Compounds II, III, and IV (Trp-p8): approximately 3 times
- EC50 (Trp-p8; read-out: CHO/Trp-p8 EC50): 3 nM
- EC50 (Parent CHO): > 10000 nM
- effect of treatment on tumor growth, CHO/Trp-p8 model (CHO/Trp-p8 xenograft; fast-growing tumor): attenuated growth, but did not cause regression
- efficacy in the CHO/Trp-p8 xenograft model (CHO/Trp-p8 xenograft; single oral dose of 10 mg/kg): significant efficacy
- effect of treatment on tumor growth, LuCaP model (LuCaP): statistically significant regression, as well as growth-inhibition
- efficacy in the matched CHO (Trp-p8-) model [3]: did not show significant efficacy
